One series in a line: in vitro. In kind it is cell-based. As to conditions: human, HepG2 or HepG2.117 cells, ATPlite, mean value. The procedure, abridged:
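Luminescent ATP quantitation served as the viability endpoint following a 3- or 4-day incubation with test compounds.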
In general terms: Cellular ATP, detected with luciferase, serves as a proxy for viable cell number.

The subject of series [1] is HBV (HepG2.117 cell line, inducibly HBV producing). Description: Anti-HBV activity: intracellular HBV DNA by real-time PCR in HepG2.117 cells after 3 days of treatment. In kind it is cell-based, hepatitis B virus. The method in brief:
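HepG2.117 cells replicate HBV under Tet-off control, without doxycycline. After induction of replication, cells were treated with serially diluted compound for 3 days, and intracellular HBV DNA was then quantified by real-time PCR with an HBV-specific primer set and probe.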
Background: In qPCR the cycle at which signal appears reflects the starting amount.

Setting [2] is: 3-days incubation (unmarked values).
Setting [3] is: Hepatitis B virus, HepG2.117, 72 h, HepG2.117 cells, 3 days of treatment, intracellular HBV DNA by real-time PCR; mean value; read-out: EC50 (μM, mean value).
The mark [4] stands for this setting: 3-days incubation (not marked with *).
Where [5] appears, read: Hepatitis B virus, HepG2.117, 72 h, HepG2.117 cells, intracellular HBV DNA by real-time PCR, 3 days of treatment, mean value; read-out: EC50 (μM, mean value).

One may read the CC50 as the concentration at which the toxic effect on the cells reaches its halfway point. A lower CC50 goes with harm at low concentration. In general, EC50 refers to the concentration giving half of the maximal effect.

Read-outs that look alike come from different tables or passages of the source.

`CCNc1nc2c(c(=O)n1-c1ccccc1OC)CCN(C(=O)c1ccc(Cl)c(Cl)c1)C2` [Compound C38, 7-(3,4-dichlorobenzoyl)-2-(ethylamino)-3-(2-methoxyphenyl)-5,6,7,8-tetrahydropyrido[3,4-d]pyrimidin-4(3H)-one] returned a CC50 at 3 days in the series “in vitro” (setting [2]) of more than 50 µM. In series [1] (setting [3]), the EC50 worked out at 6.87 µM.
For the compound `CNC(=O)c1ccc(-n2c(NC(C)C)nc3c(c2=O)C[C@@H](C)N(C(=O)c2ccc(Br)cc2F)C3)cc1` [Compound C511], the CC50 at 3 days in “in vitro” (setting [4]) was more than 50 µM. Besides, the concentration giving a half-maximal response (EC50) in series [1] (setting [5]) is 2.41 µM.
Take `COc1ccc(CNc2nc3c(c(=O)n2-c2ccccc2OC)C[C@@H](C)N(C(=O)c2ccc(Cl)c(Cl)c2)C3)cc1` (single isomer, unassigned) [Compound C36Aa]: the CC50 at 3 days in the series “in vitro” (setting [2]) was more than 50 µM. Also, in series [1] (setting [3]), the concentration for a half-maximal effect (EC50) was determined as 0.31 µM.
In “in vitro” (setting [4]), `CNC(=O)c1ccc(-n2c(NC(C)C)nc3c(c2=O)C[C@@H](C)N(C(=O)c2cc(Cl)c(Br)cc2F)C3)cc1` [Compound C577] had a CC50 at 3 days of more than 50 µM. Besides, the EC50 in series [1] (setting [5]) was found to be 0.17 µM.
For `CNC(=O)c1ccc(-n2c(N[C@H]3CCOc4cc(OC)ccc43)nc3c(c2=O)C[C@@H](C)N(C(=O)c2ccc(Cl)c(Cl)c2)C3)cc1` (single isomer, unassigned) [Compound C527b], in that order: more than 50 µM and 0.65 µM.
Turning to `CC[C@H](C)Oc1nc2c(c(=O)n1-c1ccc(C(=O)NC)cc1)C[C@@H](C)N(C(=O)c1ccc(Cl)c(Cl)c1)C2` [Compound C398], in “in vitro” (setting [4]), the cytotoxic concentration (CC50) at 3 days came out at 25.3 µM. The half-maximal effective concentration (EC50) in series [1] (setting [5]) amounted to 0.1 µM.
The compound `COc1ccc(CNc2nc3c(c(=O)n2-c2ccc(S(C)(=O)=O)cc2)C[C@@H](C)N(C(=O)c2ccc(Cl)c(Cl)c2)C3)cc1` [Compound C145, (6R)-7-(3,4-dichlorobenzoyl)-3-[4-(methanesulfonyl)phenyl]-2-{[(4-methoxyphenyl)methyl]amino}-6-methyl-5,6,7,8-tetrahydropyrido[3,4-d]pyrimidin-4(3H)-one] yielded a CC50 at 3 days in “in vitro” (setting [2]) of more than 42 µM. For the same compound, the EC50 in series [1] (setting [3]) was found to be 0.31 µM.
Turning to `CNC(=O)c1ccc(-n2c(NCc3ccc(-n4cncn4)cc3)nc3c(c2=O)C[C@@H](C)N(C(=O)c2ccc(Cl)c(Cl)c2)C3)cc1` [Compound C555], the CC50 at 3 days in the series “in vitro” (setting [4]) is more than 50 µM. Besides, the concentration giving a half-maximal response (EC50) in series [1] (setting [5]) stood at 1.33 µM.
In the series “in vitro” (setting [2]), `CNC(=O)c1ccc(-n2c(N[C@@H](C)c3ccnn3C)nc3c(c2=O)C[C@@H](C)N(C(=O)c2ccc(Cl)c(Cl)c2)C3)cc1` (single isomer, unassigned) [Compound C372b] showed a CC50 at 3 days of more than 50 µM. Besides, the EC50 in series [1] (setting [3]) stood at 2.54 µM.
In the same order, the values of `COc1ccccc1-n1c(NCc2ccc(S(C)(=O)=O)cc2)nc2c(c1=O)CCN(C(=O)c1ccc(Cl)c(Cl)c1)C2` [Compound C27, 7-(3,4-dichlorobenzoyl)-2-({[4-(methanesulfonyl)phenyl]methyl}amino)-3-(2-methoxyphenyl)-5,6,7,8-tetrahydropyrido[3,4-d]pyrimidin-4(3H)-one] are more than 50 µM and 1.98 µM.
`CNC(=O)c1ccc(-n2c(N3CCC[C@@H]3C3CC3)nc3c(c2=O)C[C@@H](C)N(C(=O)c2ccc(Cl)c(Cl)c2)C3)cc1` (single isomer, unassigned) [Compound C352, 4-[(6R)-2-[(2*R)-2-cyclopropylpyrrolidin-1-yl]-7-(3,4-dichlorobenzoyl)-6-methyl-4-oxo-5,6,7,8-tetrahydropyrido[3,4-d]pyrimidin-3(4H)-yl]-N-methylbenzamide]: the CC50 at 3 days in “in vitro” (setting [2]) was determined as 27.5 µM. Also, in series [1] (setting [3]), the EC50 came out at 0.29 µM.
Regarding `CNC(=O)c1cc(Cl)c(-n2c(NC(C)C)nc3c(c2=O)C[C@@H](C)N(C(=O)c2ccc(Cl)c(Cl)c2)C3)c(Cl)c1` [Compound C376], in “in vitro” (setting [2]), the CC50 at 3 days was more than 50 µM. Also, in series [1] (setting [3]), the half-maximal effective concentration (EC50) was 0.09 µM.
In the case of `CC(C)Nc1nc2c(c(=O)n1-c1ccc(C(=O)NC3COC3)cc1)C[C@@H](C)N(C(=O)c1ccc(Cl)c(Cl)c1)C2` [Compound C209, 4-[(6R)-7-(3,4-dichlorobenzoyl)-6-methyl-4-oxo-2-[(propan-2-yl)amino]-5,6,7,8-tetrahydropyrido[3,4-d]pyrimidin-3(4H)-yl]-N-(oxetan-3-yl)benzamide], the CC50 at 3 days in “in vitro” (setting [2]) was more than 50 µM. Further, the EC50 in series [1] (setting [3]) is 0.82 µM.
Turning to `CNC(=O)c1ccc(-n2c(N[C@@H](C)c3nccs3)nc3c(c2=O)C[C@@H](C)N(C(=O)c2ccc(Cl)c(Cl)c2)C3)cc1` (single isomer, unassigned) [Compound C434b], the half-maximal cytotoxic concentration (CC50) at 3 days in “in vitro” (setting [4]) was more than 50 µM. For the same compound, the EC50 in series [1] (setting [5]) amounted to 0.84 µM.
On to `CNC(=O)c1ccc(-n2c(NC(C)c3cc(C)no3)nc3c(c2=O)C[C@@H](C)N(C(=O)c2ccc(Cl)c(Cl)c2)C3)cc1` (some centres unmarked) [Compound C433], for which the 50% cytotoxic concentration (CC50) at 3 days in the series “in vitro” (setting [4]) is more than 50 µM. The EC50 in series [1] (setting [5]) was determined as 0.33 µM.
As to `COc1ccccc1-n1c(N[C@@H](C)c2ccccc2)nc2c(c1=O)CCN(C(=O)c1ccc(Cl)c(Cl)c1)C2` [Compound C35, 7-(3,4-dichlorobenzoyl)-3-(2-methoxyphenyl)-2-{[(1S)-1-phenylethyl]amino}-5,6,7,8-tetrahydropyrido[3,4-d]pyrimidin-4(3H)-one], the half-maximal cytotoxic concentration (CC50) at 3 days in the series “in vitro” (setting [2]) amounted to 33.2 µM. In addition, in series [1] (setting [3]), the EC50 came out at 1.41 µM.
For the compound `CC(C)Nc1nc2c(c(=O)n1-c1ccc(-n3cccn3)cc1Cl)C[C@@H](C)N(C(=O)c1ccc(Cl)c(Cl)c1)C2` [Compound C404], the CC50 at 3 days in “in vitro” (setting [4]) was more than 50 µM. The EC50 in series [1] (setting [5]) was determined as 0.13 µM.
Regarding `CNC(=O)c1cc(-n2c(NC(C)C)nc3c(c2=O)C[C@@H](C)N(C(=O)c2ccc(Cl)c(Cl)c2)C3)n(C(C)C)n1` [Compound C424], in the series “in vitro” (setting [4]), the cytotoxic concentration (CC50) at 3 days was more than 50 µM. The concentration giving a half-maximal response (EC50) in series [1] (setting [5]) turned out to be 0.93 µM.
`CC(C)Nc1nc2c(c(=O)n1-c1ccc(N3CC(=O)N(C)C3)cc1)C[C@@H](C)N(C(=O)c1ccc(Cl)c(Cl)c1)C2` [Compound C202, (6R)-7-(3,4-dichlorobenzoyl)-6-methyl-3-[4-(3-methyl-4-oxoimidazolidin-1-yl)phenyl]-2-[(propan-2-yl)amino]-5,6,7,8-tetrahydropyrido[3,4-d]pyrimidin-4(3H)-one] came in with a cytotoxic concentration (CC50) at 3 days in “in vitro” (setting [2]) of more than 50 µM. In series [1] (setting [3]), the EC50 came out at 0.19 µM.
In the case of `CNC(=O)c1ccc(-n2c(NC(C)C)nc3c(c2=O)C[C@@H](C)N(C(=O)c2cc(C)cc(F)c2)C3)cc1` [Compound C492], the CC50 at 3 days in “in vitro” (setting [4]) was more than 50 µM. Also, in series [1] (setting [5]), the 50% effective concentration (EC50) worked out at 1.98 µM.
In the case of `COc1ccccc1-n1c(NCc2ccc(C(F)(F)F)cc2)nc2c(c1=O)CCN(C(=O)c1ccc(Cl)c(Cl)c1)C2` [Compound C23, 7-(3,4-dichlorobenzoyl)-3-(2-methoxyphenyl)-2-({[4-(trifluoromethyl)phenyl]methyl}amino)-5,6,7,8-tetrahydropyrido[3,4-d]pyrimidin-4(3H)-one], the 50% cytotoxic concentration (CC50) at 4 days in the series “in vitro” (4-days incubation (values marked with *)) is more than 50 µM. The EC50 in series [1] (setting [3]) was determined as 2.56 µM.
In “in vitro” (setting [4]), `CNC(=O)c1ccc(-n2c(N[C@@H](C)c3ccc(C(F)(F)F)cc3)nc3c(c2=O)C[C@@H](C)N(C(=O)c2ccc(Cl)c(Cl)c2)C3)cn1` [Compound C533] returned a CC50 at 3 days of more than 50 µM. Also, the EC50 in series [1] (setting [5]) was determined as 0.11 µM.
As for `COc1ccc(CNc2nc3c(c(=O)n2-c2ccc(S(C)(=O)=O)cc2)C[C@H](C)N(C(=O)c2ccc(Cl)c(Cl)c2)C3)cc1` [Compound C140, (6S)-7-(3,4-dichlorobenzoyl)-3-[4-(methanesulfonyl)phenyl]-2-{[(4-methoxyphenyl)methyl]amino}-6-methyl-5,6,7,8-tetrahydropyrido[3,4-d]pyrimidin-4(3H)-one], the CC50 at 3 days in “in vitro” (setting [2]) was more than 50 µM. Moreover, the concentration for a half-maximal effect (EC50) in series [1] (setting [3]) was found to be 1.88 µM.
Regarding `COc1ccc(CNc2nc3c(c(=O)n2CCNS(C)(=O)=O)CCN(C(=O)c2ccc(Cl)c(Cl)c2)C3)cc1` [Compound C111, N-{2-[7-(3,4-dichlorobenzoyl)-2-{[(4-methoxyphenyl)methyl]amino}-4-oxo-5,6,7,8-tetrahydropyrido[3,4-d]pyrimidin-3(4H)-yl]ethyl}methanesulfonamide], the 50% cytotoxic concentration (CC50) at 3 days in the series “in vitro” (setting [2]) is more than 50 µM. In addition, in series [1] (setting [3]), the EC50 turned out to be 7.64 µM.
Compound `CNC(=O)c1ccc(-n2c(N[C@@H](C)c3ccc(S(C)(=O)=O)cc3)nc3c(c2=O)C[C@@H](C)N(C(=O)c2ccc(Cl)c(Cl)c2)C3)cc1` (single isomer, unassigned) [Compound C412b] registered a 50% cytotoxic concentration (CC50) at 3 days in “in vitro” (setting [4]) of more than 50 µM. The EC50 in series [1] (setting [5]) is more than 10 µM.
In the same order, the values of `CNC(=O)c1ccc(-n2c(N[C@H](C)c3ccc(C#N)cc3)nc3c(c2=O)C[C@@H](C)N(C(=O)c2ccc(Cl)c(Cl)c2)C3)cc1` (single isomer, unassigned) [Compound C441a] are more than 50 µM and 0.22 µM.
The compound `CC(C)Nc1nc2c(c(=O)n1-c1ccc(S(C)(=O)=O)cc1)CCN(C(=O)c1ccc(Cl)c(C(C)C)c1)C2` [Compound C222, 7-[4-chloro-3-(propan-2-yl)benzoyl]-3-[4-(methanesulfonyl)phenyl]-2-[(propan-2-yl)amino]-5,6,7,8-tetrahydropyrido[3,4-d]pyrimidin-4(3H)-one] returned a CC50 at 3 days in “in vitro” (setting [2]) of more than 50 µM. Moreover, in series [1] (setting [3]), the EC50 was 1.45 µM.
On to `CNC(=O)c1ccc(-n2c(NC)nc3c(c2=O)C[C@@H](C)N(C(=O)c2ccc(Cl)c(Cl)c2)C3)nc1` [Compound C331, 6-[(6R)-7-(3,4-dichlorobenzoyl)-6-methyl-2-(methylamino)-4-oxo-5,6,7,8-tetrahydropyrido[3,4-d]pyrimidin-3(4H)-yl]-N-methylpyridine-3-carboxamide], for which, in “in vitro” (setting [2]), the cytotoxic concentration (CC50) at 3 days was more than 50 µM. In addition, the 50% effective concentration (EC50) in series [1] (setting [3]) was 0.95 µM.
